What was measured:
[1] = system: antigen-induced swelling reaction in a mouse ear; experiment: Suppressive action against antigen-induced swelling reaction in a mouse ear; assay type: in vivo, BALB/c female mice
Method: Seven week old BALB/c female (SPF) mice of were selected as subjects. According to a method of Tanaka, et al. (Allergy, 46, pages 42-48(1997)), egg white albumin (final concentration: 2 μg/mL) and aluminum hydroxide gel (final concentration: 10 mg/mL) were suspended in physiological saline and 0.5 mL of the suspension was administered to effect intraperitoneal sensitization on the first day of the test. On the 14th day of the test, an additional sensitization was carried out under the same conditions. Further, on the 28th day of the test, 25 μL of egg albumin (a 20 μg/mL solution in physiological saline) was intradermally administered to the right ear of a mouse to induce a swelling reaction.
This swelling reaction reached its peak at 4 hours after the challenge by the antigen. Even after 24 to 48 hours, a significant swelling reaction was noted as compared with the control in which antigen was merely challenged (not sensitized). […] On the contrary, the swelling from 24 to 48 hours after the challenge is thought to be the so-called delayed-type swelling reaction accompanied by infiltration of eosinophils, neutrophils and lymphocytes. In addition, a flare-up reaction having a peak at 24 hours after the challenge appeared on the ear of the antigen-induced site. Like swelling, flare-up is an important symptom of inflammation. Although the mechanism of the flare-up reaction is ambiguous, it may be a flare-up reaction of a delayed type in view of the time course of its expression. As such, this model animal in which the inflammation of both immediate and delayed types are induced is appropriate as a model animal for atopic dermatitis. In the following experiment, the effectiveness of the therapeutic agent for dermatitis according to the present invention was tested using the said model animal.
Each of a vehicle (control) and a test agent (containing the compound of the present invention or a positive control) was applied to the antigen-induced site (right auricle) of a mouse. A swelling reaction was induced in accordance with Example 2 at 2 hours before and 4 hours after the challenge. After the challenge, the thickness of the swelling induced ear was measured by a Dial Thickness Gauge (manufactured by Ozaki Seisakusho). The intensity of the reaction was expressed in terms of an increase in the auricle thickness by deducting the thickness (early value) measured before the challenge from the thickness of the swelling induced ear. The suppression rate of the test drug for ear swelling was calculated by the following formula:
Suppression Rate (%)=100 ×[(Ear Thickness Increase of Vehicle-Only-Control)—(Ear Thickness Increase of the Test Group)]/[(Ear Thickness Increase of the Vehicle-Only-Control)—(Ear Thickness Increase of the Challenge-Only-Group)]

[2] = system: ear of a normal mouse; experiment: Influence of repeated application on the ear thickness of a normal mouse; assay type: in vivo; conditions: nine times in total, 2 hours after final application
Method: The therapeutic agent for dermatitis according to the present invention or the positive control (steroid preparation) was applied twice daily to the right ear of a normal mouse for a total of nine times and, 2 hours after the final application, the thickness of the ear was measured.

Nc1ccc2c(=O)n(Cc3ccccc3)c(=O)n(-c3ccccc3)c2n1 [Compound 1, 7-amino-3-benzyl-1,2,3,4-tetrahydro-1-phenylpyrido[2,3-d]pyrimidin-2,4-dione]
Ear Thickness Increase at 1 hr after Challenge ([1]; Table 1, 1% ointment): 6.3 ± 1.4 × 0.01 mm
Suppression Rate of ear thickness increase at 1 hr after Challenge ([1]; Table 1, 1% ointment): (106.1%)
Ear Thickness Increase at 4 hr after Challenge ([1]; Table 1, 1% ointment): 18.0 ± 0.9 × 0.01 mm
Suppression Rate of ear thickness increase at 4 hr after Challenge ([1]; Table 1, 1% ointment): (34.0%)
Ear Thickness Increase at 8 hr after Challenge ([1]; Table 1, 1% ointment): 16.0 ± 0.4 × 0.01 mm
Suppression Rate of ear thickness increase at 8 hr after Challenge ([1]; Table 1, 1% ointment): (26.0%)
Ear Thickness Increase at 24 hr after Challenge ([1]; Table 1, 1% ointment): 9.3 ± 1.1 × 0.01 mm
Suppression Rate of ear thickness increase at 24 hr after Challenge ([1]; Table 1, 1% ointment): (51.3%)
Ear Thickness Increase at 48 hr after Challenge ([1]; Table 1, 1% ointment): 6.8 ± 1.0 × 0.01 mm
Suppression Rate of ear thickness increase at 48 hr after Challenge ([1]; Table 1, 1% ointment): (47.8%)
Ear Thickness Increase at 1 hr after Challenge ([1]; Table 1, 3% ointment): 5.3 ± 0.5 × 0.01 mm
Suppression Rate of ear thickness increase at 1 hr after Challenge ([1]; Table 1, 3% ointment): (136.4%)
Ear Thickness Increase at 4 hr after Challenge ([1]; Table 1, 3% ointment): 2.3 ± 0.9 × 0.01 mm
Suppression Rate of ear thickness increase at 4 hr after Challenge ([1]; Table 1, 3% ointment): (18.4%)
Ear Thickness Increase at 8 hr after Challenge ([1]; Table 1, 3% ointment): 15.8 ± 1.4 × 0.01 mm
Suppression Rate of ear thickness increase at 8 hr after Challenge ([1]; Table 1, 3% ointment): (27.2%)
Ear Thickness Increase at 24 hr after Challenge ([1]; Table 1, 3% ointment): 7.8 ± 0.9 × 0.01 mm
Suppression Rate of ear thickness increase at 24 hr after Challenge ([1]; Table 1, 3% ointment): (61.3%)
Ear Thickness Increase at 48 hr after Challenge ([1]; Table 1, 3% ointment): 5.3 ± 0.9 × 0.01 mm
Suppression Rate of ear thickness increase at 48 hr after Challenge ([1]; Table 1, 3% ointment): (64.1%)
Ear Thickness Increase at 4 hr after Challenge ([1]; Table 2, 0.3% ointment): 20.3 ± 2.4 × 0.01 mm
Suppression Rate of ear thickness increase at 4 hr after Challenge ([1]; Table 2, 0.3% ointment): (18.7%)
Ear Thickess Increase at 24 hr after Challenge ([1]; Table 2, 0.3% ointment): 13.5 ± 1.3 × 0.01 mm
Suppression Rate of ear thickness increase at 24 hr after Challenge ([1]; Table 2, 0.3% ointment): (19.4%)
Ear Thickness Increase at 4 hr after Challenge ([1]; Table 2, 3% ointment): 13.3 ± 0.3 × 0.01 mm
Suppression Rate of ear thickness increase at 4 hr after Challenge ([1]; Table 2, 3% ointment): (49.8%)
Ear Thickess Increase at 24 hr after Challenge ([1]; Table 2, 3% ointment): 9.3 ± 1.7 × 0.01 mm
Suppression Rate of ear thickness increase at 24 hr after Challenge ([1]; Table 2, 3% ointment): (46.5%)
Ear Thickness ([2]; 3% ointment applied twice daily): 22.3 ± 0.2 × 0.01 mm
Ear Thickness ([2]; 10% ointment applied twice daily): 22.3 ± 0.5 × 0.01 mm
